According to publication PMC8284440, “Toward New Transmission-Blocking Combination Therapies: Pharmacokinetics of 10-Amino-Artemisinins and 11-Aza-Artemisinin and Comparison with Dihydroartemisinin and Artemether” (Antimicrobial Agents and Chemotherapy, 2021):

Assays:
[1] = Metabolic stability in rat liver microsomes; format: in vitro ADME; set-up: half-life / CLint scaled: dose or concentration left out as unconfirmed; details: for CLint scaled: calculated, read-out: Intrinsic liver clearance rate CLint Rat; for half-life: read-out: Microsomal half-life t1/2 Rat
Protocol: (§1) (ii) Metabolic stability in liver microsomes. The metabolic stability assay was performed in duplicate using 96-deepwell plates. Each compound (0.4 mM) was incubated individually in mouse, rat, and pooled human liver microsomes (0.4 mg/ml) at 37°C in the presence and absence of the cofactor NADPH (1 mM). An aliquot was taken at 0, 5, 10, 30, and 60 min, and the reaction was quenched by adding 300 μl of ice-cold acetonitrile containing the internal standard carbamazepine (0.0236 μg/ml) ([88]). The test compounds in the supernatant were analyzed by means of LC-MS/MS as described in “Sample analysis” below. The normalized data for each sample were used to calculate the in vitro half-life, intrinsic clearance rate, and hepatic extraction ratio from the results of this assay using the following equations ([88]).Equation 1. Normalized area. (1) Normalized area=(Peak area of sample at time point/Peak area of internal standard) Equation 2. Percent parent remaining. (2) % Parent=Normalized peak area of sample at time point/Normalized peak area of sample at t=0×100 Equation 3. Calculated t1/2. (3) t1/2=−0.693/λ where λ is the slope of the ln (% parent remaining) versus time curve of the compound.Equation 4. CLint. (4) CLint=[0.693/t1/2(min)]×[Volume of incubation (μl)/Microsomal protein (μg)] Equation 5. Hepatic extraction ratio. (5) EH=fu×CLint/QH + fu×CLint
(§2) Sample extraction. […] The organic layer was then transferred and evaporated under a gentle stream of nitrogen at room temperature for 30 min. The dried samples were reconstituted in mobile phase, and a 5 μl sample was injected for LC-MS/MS analysis. The only exception was the arylurea 10, for which no liquid-liquid extraction was conducted; instead, the 200 μl acetonitrile solution was evaporated under a gentle stream of nitrogen at room temperature. The dried sample was reconstituted in the mobile phase, and a 5 μl sample was injected for LC-MS/MS analysis. The plasma samples for each compound from the in vivo studies were extracted by mixing 350 μl ethyl acetate with 15 μl of plasma sample and 35 μl of universal buffer containing internal standard at pH 8. The samples were vortexed for 1 min and centrifuged for 5 min, and the organic layer was then transferred and evaporated under a gentle stream of nitrogen at room temperature for 30 min. The dried samples were each reconstituted in the mobile phase, and a 5 μl sample was injected for LC-MS/MS analysis.
(§3) LC-MS/MS analysis. For all the artemisinins except the arylurea 10, gradient chromatography was performed on a Phenomenex (Torrance, CA, USA) Luna PFP(2) analytical column (100 Å, 5 μm, 2 by 50 mm) and an AB Sciex API 5500 mass spectrometer which was operated at unit resolution in the multiple reaction monitoring (MRM) mode. The HPLC method used was a gradient method with 5 mM ammonium acetate and 0.1% acetic acid in water as the aqueous phase and a mixture of acetonitrile and methanol (1:1 vol/vol) containing 5% of the aqueous phase as the organic phase ([89]). The arylurea 10 was analyzed using a Phenomenex Gemini NX-C18 (5 μm, 2.1 mm by 50 mm) column with an AB Sciex 3200 QTRAP mass spectrometer operated at unit resolution in the MRM mode. The HPLC method used was a gradient method with 5 mM ammonium acetate and 0.1% acetic acid in water as the aqueous phase and a mixture of acetonitrile and methanol (1:1 vol/vol). The transitions of the molecular ions were monitored, as listed in Table S8 in the supporting information. The calibration range was between 0.002 μg/ml and 6.250 μg/ml. Data acquisition and evaluation were performed using Analyst 1.6.2 software (Applied Biosystems, Foster City, CA, USA). The formation of the putative metabolite DHA from the amino-artemisinins and the metabolite M1 of artemisone were evaluated in these mice PK studies; the MRM transitions of DHA and M1 (Table S8) were thus included in the LC-MS/MS assays.

[2] = Metabolic stability in mouse liver microsomes; format: in vitro ADME; set-up: half-life / CLint scaled: dose or concentration left out as unconfirmed; details: for CLint scaled: calculated, read-out: Intrinsic liver clearance rate CLint Mouse; for half-life: read-out: Microsomal half-life t1/2 Mouse
Protocol: as §1, §2, §3

SMILES | Hepatic extraction ratio EH Rat [1] | CLint scaled [1] | half-life [1] | Hepatic extraction ratio EH Mouse [2] | CLint scaled [2] | half-life [2]
C[C@H]1[C@@H](O)O[C@@H]2O[C@@]3(C)CC[C@H]4[C@H](C)CC[C@@H]1[C@@]24OO3 [DHA 2, dihydroartemisinin] | 0.4 | 34.7 mL/min/kg | 90 min | 0.4 | 50.2 mL/min/kg | 136 min
C[C@H]1[C@H](N2CCS(=O)(=O)CC2)O[C@@H]2O[C@@]3(C)CC[C@H]4[C@H](C)CC[C@@H]1[C@@]24OO3 [Artemisone 6, artemisone] | 0.9 | 342 mL/min/kg | < 10 min | 0.9 | 805 mL/min/kg | < 10 min
C[C@H]1[C@H](N2CCSCC2)O[C@@H]2O[C@@]3(C)CC[C@H]4[C@H](C)CC[C@@H]1[C@@]24OO3 [Artemiside 5, artemiside] | 1.0 | 1390 mL/min/kg | < 10 min | 0.9 | 551 mL/min/kg | 12.4 min
C[C@@H]1CC[C@H]2[C@@H](C)C(=O)N[C@@H]3O[C@@]4(C)CC[C@@H]1[C@]32OO4 [11-Aza-artemisinin 11, 11-aza-artemisinin] | 0.1 | 9 mL/min/kg | > 150 min | 0.3 | 36.4 mL/min/kg | > 150 min
C[C@H]1[C@H](NS(N)(=O)=O)O[C@@H]2O[C@@]3(C)CC[C@H]4[C@H](C)CC[C@@H]1[C@@]24OO3 [Sulfamide 7] | 0.4 | 32.9 mL/min/kg | 94.9 min | 0.3 | 41.3 mL/min/kg | > 150 min
CO[C@H]1O[C@@H]2O[C@@]3(C)CC[C@H]4[C@H](C)CC[C@@H]([C@H]1C)[C@@]24OO3 [Artemether 3, artemether] | 0.9 | 988 mL/min/kg | < 10 min | 0.8 | 393 mL/min/kg | 17.4 min
C[C@H]1[C@H](N2CCN(C(=O)Nc3ccc(F)cc3)CC2)O[C@@H]2O[C@@]3(C)CC[C@H]4[C@H](C)CC[C@@H]1[C@@]24OO3 [Arylurea 10] | – | – | – | 0.6 | 2480 mL/min/kg | < 10 min
C[C@H]1[C@H](N2C=CS(=O)(=O)CC2)O[C@@H]2O[C@@]3(C)CC[C@H]4[C@H](C)CC[C@@H]1[C@@]24OO3 [M1 12] | 0.7 | 108 mL/min/kg | 28.8 min | 0.3 | 37.4 mL/min/kg | > 150 min
